Experimental data: article PMC9698773, “Design, Synthesis, Molecular Modeling, and Anticancer Evaluation of New VEGFR-2 Inhibitors Based on the Indolin-2-One Scaffold” (Pharmaceuticals, 2022)

Key:
HepG2 cells = experiment: Cell cycle analysis (PI staining, flow cytometry); assay type: cell-based, human; settings: HepG2, 1.13 µM, 24 h
Experimental: The liver HepG2 cells were treated with 1.13 μM of 17a, and the effect on the cell cycle distribution was evaluated by flow cytometric analysis, as described in the Supplementary Materials. […]
4.2.3. Cell cycle analysis
To determine the role of the synthesized compounds in cell cycle distribution, cell cycle analysis was performed using propidium iodide (PI) staining and flow cytometry analysis for compound 17a. A Flow Cytometry Kit for Cell Cycle Analysis (ab139418_Pro‐ pidium Iodide Flow Cytometry Kit/BD) was used in this test. HepG2 cells were treated with compound 17a (1.13 μM) for 24 h. Then, the cells were fixed in 70% ethanol at 4 °C for 12 h. After that, the cells were washed with cold PBS, incubated with 100 μl RNase A at 37 °C for 30 min, and stained with 400 μ l PI in the dark at room temperature for a further 30 min. The stained cells were measured using a BD FACSCalibur™ Flow Cytometer, and the data were analyzed using Flowing software (version 2.5.1, Turku Centre for Biotech‐

VEGFR-2 = VEGFR-2 (Homo sapiens, UniProt P35968); experiment: In vitro VEGFR-2 kinase inhibitory assay (VEGFR2 (KDR) Kinase Assay Kit)
Sequence of VEGFR-2 (P35968 20-1356): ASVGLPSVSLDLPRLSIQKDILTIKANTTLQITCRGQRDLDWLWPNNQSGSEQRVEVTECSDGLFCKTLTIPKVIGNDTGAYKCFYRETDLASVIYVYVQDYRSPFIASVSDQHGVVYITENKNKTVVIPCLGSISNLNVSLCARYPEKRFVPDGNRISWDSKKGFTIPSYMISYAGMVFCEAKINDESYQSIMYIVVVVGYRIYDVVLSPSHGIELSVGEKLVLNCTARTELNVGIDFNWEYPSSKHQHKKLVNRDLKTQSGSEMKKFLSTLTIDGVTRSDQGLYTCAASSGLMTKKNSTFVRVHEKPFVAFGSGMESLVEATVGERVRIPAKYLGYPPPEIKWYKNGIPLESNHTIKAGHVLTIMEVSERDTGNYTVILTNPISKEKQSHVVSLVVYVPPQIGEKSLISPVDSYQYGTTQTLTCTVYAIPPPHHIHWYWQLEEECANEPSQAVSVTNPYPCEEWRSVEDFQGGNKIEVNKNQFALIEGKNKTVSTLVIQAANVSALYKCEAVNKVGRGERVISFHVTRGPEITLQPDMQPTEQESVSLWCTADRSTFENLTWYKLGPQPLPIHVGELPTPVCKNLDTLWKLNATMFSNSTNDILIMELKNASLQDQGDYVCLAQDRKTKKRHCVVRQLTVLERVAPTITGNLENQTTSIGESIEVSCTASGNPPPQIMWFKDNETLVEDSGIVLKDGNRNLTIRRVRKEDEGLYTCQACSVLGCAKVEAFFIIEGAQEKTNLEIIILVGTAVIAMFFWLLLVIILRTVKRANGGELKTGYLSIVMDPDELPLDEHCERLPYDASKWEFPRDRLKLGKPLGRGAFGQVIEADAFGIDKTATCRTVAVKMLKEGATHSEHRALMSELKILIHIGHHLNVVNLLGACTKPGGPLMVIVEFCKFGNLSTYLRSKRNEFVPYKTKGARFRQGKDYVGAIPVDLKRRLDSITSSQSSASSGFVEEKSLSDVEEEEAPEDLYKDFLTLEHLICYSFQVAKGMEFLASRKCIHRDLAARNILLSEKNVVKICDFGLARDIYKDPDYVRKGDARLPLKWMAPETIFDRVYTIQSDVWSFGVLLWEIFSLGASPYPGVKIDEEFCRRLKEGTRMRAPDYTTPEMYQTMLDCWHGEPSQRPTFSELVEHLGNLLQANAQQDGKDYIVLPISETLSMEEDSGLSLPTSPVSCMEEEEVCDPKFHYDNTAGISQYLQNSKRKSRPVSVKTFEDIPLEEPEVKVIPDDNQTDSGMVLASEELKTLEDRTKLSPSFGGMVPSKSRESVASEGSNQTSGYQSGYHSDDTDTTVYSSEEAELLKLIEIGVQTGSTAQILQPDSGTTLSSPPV
Experimental: In vitro VEGFR‐2 kinase inhibitory assay
for their inhibitory activity against VEGFR‐2. Human BPS bioscience® VEGFR2 (KDR) Ki‐ nase Assay Kit (Enzyme‐Linked Immunosorbent Assay) was utilized in this test. The lu‐ minescent signal from the assay is correlated with the amount of ATP present and is in‐ versely correlated with the amount of kinase activity. The compounds were diluted to 100 μM in 10% DMSO and 5 ml of the diluted solution was added to a 50 ml reaction so that the final concentration of DMSO was 1% in all of reactions. All of the enzymatic reactions were conducted at 30 °C for 40 min. The 50 μl reaction mixture contains 40 μM Tris, pH 7.4, 10 μM MgCl2, 0.1 mg/ml BSA, 0.2 mg/ml Poly (Glu, Tyr) substrate, 10 μM ATP, and VEGFR‐2. After the enzymatic reaction, 50 ml of Kinase‐GloPlus Luminescence kinase as‐ say solution (Promega) was added to each reaction and the plate was incubated for 5 min at room temperature. Luminescence signal was measured using a BioTek Synergy 2 mi‐ croplate reader. The protein kinase assays used to determine IC50 values were performed using a ADP‐GloTM assay kit from Promega, which measures the generation of ADP by the protein kinase. Generation of ADP by the protein kinase reaction leads to an increase in luminescence signal in the presence of the ADP‐GloTM assay kit. The assay was started by incubating the reaction mixture in a 96‐well plate at 30 °C for 30 min. After the 30 mi n incubation period, the assay was terminated by the addition of 25 ml of ADP‐GloTM Re‐ agent (Promega). The 96‐well plate was shaken and then incubated for 40 min at ambient temperature; 50 ml of Kinase detection reagent was added, the 96‐well reaction plate wa s then read using the ADP‐Glo Luminescences Protocol on a GloMax plate reader (Promega: Catalog #E7031). The blank control was set up which included all the assay components, except the addition of appropriate substrates (replaced with equal volume of kinase assay buffer). The corrected activity for each protein kinase target was deter‐ mined by removing the blank control value. IC50 determination for inhibitor against VEGFR‐2 was estimated by generating a graph of log inhibitor vs normalized response with variables.

HepG2 cell line = experiment: MTT cytotoxicity assay, HepG2; assay type: cell-based, human; settings: for IC50: mean ± SD of three experiments
Experimental: The cytotoxic activities against breast MCF-7 and liver HepG2 cancer cell lines for all the synthesized compounds 3a,b–17a,b were evaluated by MTT-based cytotoxicity assay. Sunitinib was selected as a reference standard in this study, and the results are presented as IC50 in Table 1.
The anticancer activities of the target compounds 3a,b–17a,b were quantitatively assessed using the MTT protocol against the MCF-7 and HepG2 cell lines, as described in the Supplementary Materials. […]
4.2. Biological investigation
4.2.1. In vitro cytotoxic activity assay
Citation: Abdelgawad, M.A.; Cell Line cells were obtained from the American Type Culture Collection. The cells Hayallah A.M.; Bukhari S.N.A.; were cultured using DMEM (Invitrogen/Life Technologies) supplemented with 10% FBS Musa A.; Elmowafy M.; (Hyclone,), 10 ug/ml of insulin (Sigma), and 1% penicillin‐streptomycin. All of the other Abdel‐Rahman, H.M.; chemicals and reagents were from Sigma or Invitrogen. Plate cells (cells density 1.2 – 1.8 Abd El‐Gaber, M.K. Design, × 10,000 cells/well) in a volume of 100μl complete growth medium + 100 μl of the tested Synthesis, Molecular Modeling, and compound per well in a 96‐well plate for 24 hours before the MTT assay. The tested com‐ Anticancer Evaluation of New pounds were dissolved in DMSO just before the test.
VEGFR‐2 Inhibitors Based on the Indolin‐2‐One Scaffold. 4.2.1.1. Cell culture protocol
Pharmaceuticals 2022, 15, x. The culture medium was removed to a centrifuge tube. The cell layer was briefly https://doi.org/10.3390/xxxxx rinsed with 5 mL of 0.25% (w/v) Trypsin and 3 mL of 0.53 mM EDTA solution to remove Academic Editor(s): Mary J. Meegan all traces of serum which contains Trypsin inhibitor. Next, 2.0 to 3.0 ml of Trypsin EDTA Received: 18 October 2022 solution was added to the flask and cells were observed under an inverted microscope Accepted: 9 November 2022 until the cell layer was dispersed (usually within 5 to 15 minutes). Then, 6.0 to 8.0 mL of Published: 14 November 2022 complete growth medium was added and cells aspirated by gently pipetting. The cell suspension was transferred to the centrifuge tube with the medium and cells from step 1, Publisher’s Note: MDPI stays neu‐and centrifuged at approximately 125 xg for 5 to 10 minutes. The supernatant was dis‐ tral with regard to jurisdictional carded and the cell pellet was suspended in fresh growth medium. Appropriate aliquots claims in published maps and institu‐ of the cell suspension were added to new culture vessels and incubated at 37°C for 24 hrs. tional affiliations. After treatment of cells with the serial concentrations of the compound to be tested, incu‐ bation was carried out for 48 h at 37 °C. The plates were examined under an inverted mi‐ croscope and proceeded for the MTT assay […]
Submitted for possible open access 4.2.1.2. […]
HepG‐2) were used in this test. At first, the cell lines were cultured in RPMI‐1640 medium Pharmaceuticals 2022, 15, x. https://doi.org/10.3390/xxxxx. www.mdpi.com/journal/pharmaceuticals […]
Pharmaceuticals 2022, 15, x FOR PEER REVIEW 2 of 22 with 10% fetal bovine serum. Antibiotics (100 units/ml penicillin and100 μg/ml strepto‐ mycin) were added at 37 °C in a 5% CO2 incubator. The cell lines were seeded in a 96‐well plate at a density of 1.0 x 10^4 cells / well at 37 °C for 48 h under 5% CO2. After incubation, the cells were treated with different concentrations of the synthesized compounds and incubated for 24 h. After 24 h of drug treatment, 20 μl of MTT solution (5mg/ml) was added and incubated for 4 h. 100 μl of dimethyl sulfoxide (DMSO) was added into each well to dissolve the formed purple formazan. The colored solution was measured and recorded at an absorbance of 570 nm using a plate reader (EXL 800, USA). The relative cell viability was calculated in percentage as (A570 of treated samples/A570 of untreated sam‐ ple) X 100. The half maximal inhibitory concentration (IC50) values were presented using […]

Compound: O=C1Nc2ccccc2C1=Nc1ccc(C(=O)NNC(=S)Nc2ccccc2)cc1 [Compound 17a, 2-(4-((2-Oxoindolin-3-ylidene)amino)benzoyl)-N-phenylhydrazinecarbothioamide]
- Cell Cycle Distribution %G0-G1 (HepG2 cells): 42.91%
- Cell Cycle Distribution %G2/M (HepG2 cells): 9.07%
- Cell Cycle Distribution %S (HepG2 cells): 48.02%
- Cell Cycle Distribution %pre G1 (HepG2 cells): 46.38%
- increase of cell population at S phase versus control (HepG2 cells): 1.43 fold
- phase of cell cycle arrest (HepG2 cells): S phase
- IC50 (VEGFR-2): 78 ± 3 nM
- fold more potent than sunitinib, VEGFR-2 inhibition (VEGFR-2; ratio of IC50 to sunitinib): 1.78 fold
- IC50 (HepG2 cell line; Homo sapiens, HepG2, MTT assay): 1130 ± 60 nM
- IC50 (HepG2 cell line; MTT assay): 1130 ± 60 nM
- fold more potent than sunitinib, HepG2 (HepG2 cell line; ratio of IC50 to sunitinib): two-fold
